From patent publication US20230339854A1, “Negative Allosteric Modulation of GluN3-Containing N-Methyl-D-Aspartate Receptors” (Emory University, priority 2020, published 2023)
“Also recorded” adds a separate entry of the source.

Tests used:
[1] = target: T1, rat GluN1-4a/GluN3B receptors (Rattus norvegicus, UniProt P35439+Q8VHN2); experiment: Two-electrode voltage-clamp recordings of GluN1-4a/GluN3B receptors in the presence of CGP-78608 (Xenopus oocytes); assay type: cell-based; settings: pH 7.4; 0.5 μM CGP-78608; read-out: EC50, (95% CI) GluN1/GluN3B + CGP
T1 construct: Human GluN3A (NP_597702.2) and rat GluN3B (NP_579842.2) were synthesized and subcloned into SP6 plasmids; expressed in transfected cells; host or cells: Xenopus laevis oocytes, cRNA injection
T1 sequence (Q8VHN2 25-1002, other chains not shown): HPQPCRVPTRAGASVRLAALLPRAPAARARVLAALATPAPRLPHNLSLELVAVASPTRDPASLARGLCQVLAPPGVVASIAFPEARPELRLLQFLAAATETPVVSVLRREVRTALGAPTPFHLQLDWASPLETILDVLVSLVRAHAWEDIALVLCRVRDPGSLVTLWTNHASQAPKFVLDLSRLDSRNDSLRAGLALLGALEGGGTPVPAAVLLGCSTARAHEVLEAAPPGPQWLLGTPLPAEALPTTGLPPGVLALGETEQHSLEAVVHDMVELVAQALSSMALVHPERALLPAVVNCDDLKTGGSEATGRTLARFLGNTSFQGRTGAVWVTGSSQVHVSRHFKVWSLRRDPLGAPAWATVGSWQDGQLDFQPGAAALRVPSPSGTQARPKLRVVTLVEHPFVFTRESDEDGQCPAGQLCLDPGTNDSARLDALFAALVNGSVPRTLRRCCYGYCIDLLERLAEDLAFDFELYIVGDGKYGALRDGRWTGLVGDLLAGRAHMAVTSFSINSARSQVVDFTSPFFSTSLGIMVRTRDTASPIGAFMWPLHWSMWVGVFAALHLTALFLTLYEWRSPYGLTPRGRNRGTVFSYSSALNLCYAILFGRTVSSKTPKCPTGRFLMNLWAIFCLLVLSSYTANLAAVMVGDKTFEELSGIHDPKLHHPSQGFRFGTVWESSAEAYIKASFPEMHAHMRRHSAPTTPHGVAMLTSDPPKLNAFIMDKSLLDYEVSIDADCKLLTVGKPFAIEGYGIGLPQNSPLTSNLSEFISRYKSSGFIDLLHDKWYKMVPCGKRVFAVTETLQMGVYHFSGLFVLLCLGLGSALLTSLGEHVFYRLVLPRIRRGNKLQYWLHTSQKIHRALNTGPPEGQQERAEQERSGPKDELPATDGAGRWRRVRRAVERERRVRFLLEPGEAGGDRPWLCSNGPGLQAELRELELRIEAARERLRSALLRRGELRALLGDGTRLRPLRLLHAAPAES
From the text: (§1) cDNA encoding human wild-type (WT) GluN1-1a (GenBank accession numbers NP_015566, hereafter GluN1) and rat GluN1-1a (NP_058706.1) were synthesized and subcloned into pGEMHE plasmid; some experiments used the rat splice variant GluN1-4a (NP_001257531.1). Human GluN3A (NP_597702.2) and rat GluN3B (NP_579842.2) were synthesized and subcloned into SP6 plasmids. For most experiments, human GluN1 was co-expressed with human GluN3A, except for mutagenesis experiments where rat GluN1 was co-expressed with human GluN3A. Rat GluN1-4a was always expressed with rat GluN3B.
(§2) Defolliculated Xenopus laevis oocytes (stage V-VI) were obtained from Ecocyte BioScience (Austin, Texas), or prepared from commercially available Xenopus ovaries (Xenopus 1, Dexter, MI) as previously described (Hansen, et al., Mol. Pharmacol., 2013). A Drummond Nanoject II (Broomall, PA) was used to inject oocytes with cRNAs encoding GluN1 and GluN3 at a 1:3 ratio in RNase-free water. The cRNA was diluted as needed to give responses with amplitudes ranging between 200-2000 nA (0.2-10 ng total cRNA). Following cRNA injection, the oocytes were stored at 15-19° C. in Barth's solution that contained (in mM) 88 NaCl, 2.4 NaHCO3, 1 KCl, 0.33 Ca(NO3)2, 0.41 CaCl2), 0.82 MgSO4, and 5 Tris-HCl (pH 7.4 with NaOH), supplemented with 1 μg/ml streptomycin (Invitrogen, Carlsbad, CA) and 100 μg/ml gentamicin (Fisher Scientific, Pittsburgh, PA). Recordings were performed 2-5 days following cRNA microinjection at room temperature (23° C.) using a two-electrode voltage-clamp amplifier (OC725, Warner Instrument, Hamilton, CT). The signal was low-pass filtered at 10-20 Hz (4-pole, −3 dB Bessel) and digitized at the Nyquist rate using PCI-6025E or USB-6212 BNC data acquisition boards (National Instruments, Austin, TX) using EasyOocyte (http://www.easyoocyte.io/). Oocytes were placed in a custom-made chamber and continuously perfused (2.5 ml/min) with oocyte recording solution containing (in mM) 90 NaCl, 1 KCl, 10 HEPES, 0.5-1.0 BaCl2, and 0.01 EDTA (pH 7.4 with NaOH). Solutions were applied by gravity, and solution exchange was controlled through a rotary valve (Hamilton, Reno, NV). Recording electrodes were filled with 0.3-3.0 M KCl, and current responses were recorded at a holding potential of −40 mV.
(§3) Response (%)=(100−minimum)/(1+([concentration]/IC50)^nH)+minimum (2) • where nH is the Hill slope, IC50 is the concentration that produces a half-maximal effect, and minimum is the degree of residual inhibition at a saturating concentration of the negative allosteric modulator.
(§4) Selected compounds were also screened in the same assay as EU1180-438 to determine their effect on GluN3B.

[2] = target: T2, rat GluN1-4a/GluN3B receptors (Rattus norvegicus, UniProt Q8VHN2); experiment: as above; assay type: cell-based
T2 construct: Human GluN3A (NP_597702.2) and rat GluN3B (NP_579842.2) were synthesized and subcloned into SP6 plasmids; expressed in transfected cells; host or cells: Xenopus laevis oocytes, cRNA injection
T2 sequence (Q8VHN2 25-1002, other chains not shown): as above
From the text: as §1, §2, §3, §4

[3] = target: GluN1/GluN3A channels (Mus musculus, UniProt A2AIR5); experiment: Nonstationary variance analysis of neuronal glycine-evoked current responses; assay type: cell-based; settings: 30 μM; VHOLD −60 mV
Sequence of GluN1/GluN3A channels (A2AIR5 27-1135, other chains not shown): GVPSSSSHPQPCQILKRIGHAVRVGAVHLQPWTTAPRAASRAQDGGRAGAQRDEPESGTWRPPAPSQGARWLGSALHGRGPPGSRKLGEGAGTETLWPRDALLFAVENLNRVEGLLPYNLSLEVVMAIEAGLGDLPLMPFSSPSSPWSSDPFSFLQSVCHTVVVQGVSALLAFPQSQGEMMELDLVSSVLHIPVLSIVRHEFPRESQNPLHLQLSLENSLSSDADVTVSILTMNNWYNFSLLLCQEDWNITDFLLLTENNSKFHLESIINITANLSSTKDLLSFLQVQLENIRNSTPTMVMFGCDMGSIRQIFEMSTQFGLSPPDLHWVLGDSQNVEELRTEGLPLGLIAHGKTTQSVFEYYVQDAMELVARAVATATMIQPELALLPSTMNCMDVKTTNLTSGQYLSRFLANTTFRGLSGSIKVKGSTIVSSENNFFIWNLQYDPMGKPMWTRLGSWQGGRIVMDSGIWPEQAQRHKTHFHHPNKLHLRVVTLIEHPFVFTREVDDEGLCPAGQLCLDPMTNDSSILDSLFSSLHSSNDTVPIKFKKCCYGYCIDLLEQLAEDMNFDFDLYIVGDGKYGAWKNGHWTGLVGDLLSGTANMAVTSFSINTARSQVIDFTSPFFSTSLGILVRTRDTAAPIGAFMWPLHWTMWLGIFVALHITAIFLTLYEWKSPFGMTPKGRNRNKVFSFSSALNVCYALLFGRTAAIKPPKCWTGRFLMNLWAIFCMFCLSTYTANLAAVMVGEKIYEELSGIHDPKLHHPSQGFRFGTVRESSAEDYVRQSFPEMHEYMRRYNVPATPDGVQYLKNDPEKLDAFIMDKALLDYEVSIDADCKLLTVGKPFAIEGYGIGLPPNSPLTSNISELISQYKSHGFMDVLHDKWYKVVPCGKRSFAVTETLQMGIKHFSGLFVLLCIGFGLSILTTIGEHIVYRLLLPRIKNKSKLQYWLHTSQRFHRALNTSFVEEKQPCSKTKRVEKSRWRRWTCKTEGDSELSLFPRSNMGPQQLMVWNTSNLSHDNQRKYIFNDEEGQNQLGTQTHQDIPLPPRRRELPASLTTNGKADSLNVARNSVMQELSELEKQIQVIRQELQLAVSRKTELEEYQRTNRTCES
Procedure: Nonstationary variance analysis (Perszyk, et al., Nat. Chem. Biol., 2020, 16(2), 188-196) was conducted on the deactivation phase of the neuronal glycine-evoked current responses bathed in vehicle (control) or 30 μM EU1180-438 (VHOLD: −60 mV). […] The current was divided into 50 equally spaced segments, and the mean current amplitude of each segment was determined. The current was high pass filtered with a cutoff of 1 Hz, and the current variance was determined for 50 segments. The plot of variance vs. current for each response was fitted by the equation:
Variance=iI−I^2/N • where I is the current amplitude of macroscopic response, i is the weighted mean unitary current, and N is the channel numbers. Virtually identical results were found if the current-variance relationship for all 10 responses for each cell were averaged and then fitted by the foregoing equation. Chord conductance y was determined assuming 0 mV for the reversal potential.
Some allosteric modulators with molecular determinants in the pre-M1 can reduce single channel conductance for glutamate receptors (Perszyk, et al., Nat. Chem. Biol., 2020, 16(2), 188-196; Yuan, et al., ACS Med. Chem. Lett., 2019, 10 (3), 237-242). […]

[4] = target: T3, GluK2 kainate receptors (Rattus norvegicus, UniProt P42260); experiment: Kainate receptors in Xenopus oocytes (selectivity); assay type: cell-based; settings: 20 μM
T3 construct: expressed in transfected cells; host or cells: Xenopus laevis oocytes, cRNA injection
T3 sequence (P42260 32-908): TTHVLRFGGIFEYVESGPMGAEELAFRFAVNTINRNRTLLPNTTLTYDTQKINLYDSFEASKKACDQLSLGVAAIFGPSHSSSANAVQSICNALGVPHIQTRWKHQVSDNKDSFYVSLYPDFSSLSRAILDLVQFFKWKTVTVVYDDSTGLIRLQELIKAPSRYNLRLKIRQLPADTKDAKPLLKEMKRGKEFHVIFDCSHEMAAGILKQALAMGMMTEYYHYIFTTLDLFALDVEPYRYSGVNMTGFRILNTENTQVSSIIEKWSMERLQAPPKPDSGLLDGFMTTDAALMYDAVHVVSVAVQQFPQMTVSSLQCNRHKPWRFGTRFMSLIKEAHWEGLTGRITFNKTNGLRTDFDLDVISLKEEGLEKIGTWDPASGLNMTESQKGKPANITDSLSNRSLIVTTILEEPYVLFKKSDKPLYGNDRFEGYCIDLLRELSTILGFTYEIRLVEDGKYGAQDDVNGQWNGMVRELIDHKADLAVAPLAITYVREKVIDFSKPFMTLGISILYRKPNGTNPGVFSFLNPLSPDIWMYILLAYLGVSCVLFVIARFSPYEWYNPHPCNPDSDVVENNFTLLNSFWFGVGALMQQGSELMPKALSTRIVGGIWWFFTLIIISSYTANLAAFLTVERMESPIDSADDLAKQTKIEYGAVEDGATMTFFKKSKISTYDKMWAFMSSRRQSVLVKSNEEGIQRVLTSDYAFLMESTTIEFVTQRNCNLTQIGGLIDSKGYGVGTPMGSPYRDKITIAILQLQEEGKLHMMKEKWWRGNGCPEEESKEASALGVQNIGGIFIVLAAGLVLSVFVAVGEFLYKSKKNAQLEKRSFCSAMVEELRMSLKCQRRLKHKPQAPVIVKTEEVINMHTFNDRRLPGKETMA
Procedure: (§5) The numbers of oocytes recorded are in parentheses.
(§6) The cDNA was linearized by restriction enzymes (Thermo Fisher Scientific, Lithuania), and the cRNA encoding the receptor subunits was synthesized from the linear template cDNA using the mMESSAGE mMACHINE kit (Invitrogen/Thermo Fisher Scientific, Lithuania). The α1β1δγ nAChR subunits were injected at a 1:1:1:1 ratio while α4 […] nAChR subunits were injected at a 1:1 ratio. The cDNAs encoding GABA and glycine subunits were provided by Dr. D. Weiss (University of Texas Health Science Center at San Antonio). The cDNAs encoding nAChR subunits were provided by Drs. R. Papke (University of Florida) and S. Heinemann (Salk Institute). The cDNA encoding the purinergic receptor was provided by Dr. R. Hume (University of Michigan).
(§7) Responses in the presence of EU1180-438 were expressed as a percent of control calculated as the average of the responses before and after EU1180-438 exposure. […]
(§8) Defolliculated Xenopus laevis oocytes (stage V-VI) were obtained from Ecocyte BioScience (Austin, Texas), or prepared from commercially available Xenopus ovaries (Xenopus 1, Dexter, MI) as previously described (Hansen, et al., Mol. Pharmacol., 2013). […] Recording electrodes were filled with 0.3-3.0 M KCl, and current responses were recorded at a holding potential of −40 mV.

[5] = system: nicotinic receptors; experiment: Nicotinic acetylcholine receptors in Xenopus oocytes (selectivity); assay type: cell-based, rat; settings: 20 μM
Procedure: as §5, §6, §7, §8

[6] = target: native GluN1/GluN3A receptors (Mus musculus, UniProt A2AIR5); experiment: Whole-cell patch-clamp of glycine-activated responses in hippocampal CA1 pyramidal cells, acute brain slices; assay type: cell-based; settings: 30 μM; 1 μM CGP-78608; 10 mM glycine puffs
Sequence of native GluN1/GluN3A receptors (A2AIR5 27-1135, other chains not shown): as the sequence (A2AIR5 27-1135, other chains not shown) above

[7] = 500 nM CGP-78608 plus 100 μM glycine

## COc1ccc(OCC(c2ccc(OC)cc2)N2Cc3ccccc3C2=O)cc1 (racemic) [EU1180-438, 2-(2-(4-methoxyphenoxy)-1-(4-methoxyphenyl)ethyl)isoindolin-1-one]
[1]
  EC50: 2200 nM
[2]; 500 nM CGP-78608
  maximal inhibition: 93%
[2]; [7]
  Slope: 1.5
  minimum: 7%
[2]; fitted maximum at saturating test compound, pH 7.4, 0.5 μM CGP-78608
  % Inhibition GluN1/GluN3B + CGP: 93%, (n = 8)
[3]
  average chord conductance of GluN1/GluN3A channels: 6.3±0.90 pS
[4]
  activity at GluK2 kainate receptors: virtually no activity
[5]
  activity at nicotinic receptors: inhibited some, but not all, nicotinic receptors
[6]
  effect on glycine-activated responses from native GluN1/GluN3A receptors: strong inhibition; also recorded: inhibited significantly
